Assay results reported in patent US9468661B2, “Pyrrolidine derivatives and their use as complement pathway modulators” (priority 2012, dated 2016).

The compounds below were run against human factor D (Homo sapiens (Human), UniProt P00746) (assay: biochemical). Settings: Factor D inhibition data using Method 1; recombinant human factor D 10 nM, substrate Z-Lys-thiobenzyl, fluorescence; read-out: IC50.
human factor D, sequence (P00746 26-253): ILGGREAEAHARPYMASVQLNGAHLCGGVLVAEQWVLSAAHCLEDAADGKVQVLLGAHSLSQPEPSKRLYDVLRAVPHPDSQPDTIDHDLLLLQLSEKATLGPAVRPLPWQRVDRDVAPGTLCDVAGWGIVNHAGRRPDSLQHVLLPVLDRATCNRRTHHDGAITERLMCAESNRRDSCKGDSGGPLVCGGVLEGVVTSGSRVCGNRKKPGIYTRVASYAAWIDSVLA
Type: biochemical
Outline: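 E. coli-expressed recombinant human factor D (10 nM) was preincubated with compound for 1 h at room temperature in 0.1 M Hepes pH 7.5, 1 mM MgCl2, 1 M NaCl, 0.05% CHAPS. Fluorescence (ex 485/em 535 nm) was read after adding Z-Lys-thiobenzyl (200 μM) and 2,4-dinitrobenzenesulfonyl-fluoresceine (25 μM); IC50 came from percent inhibition versus concentration.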
Work on `CCC1(CC)CC1CNC(=O)[C@@H]1C[C@H]2C[C@H]2N1C(=O)Cn1nc(C(C)=O)c2cccnc21` (stereo partly drawn) [Example 10, (1R,3S,5R)-2-[2-(3-Acetyl-pyrazolo[3,4-b]pyridin-1-yl)-acetyl]-2-aza-bicyclo[3.1.0] hexane-3-carboxylic acid (2,2-diethyl-cyclopropylmethyl)-amide] yielded an IC50 of 1.42 µM. For `C[C@@H](NC(=O)[C@@H]1C[C@@H](F)CN1C(=O)Cn1nc(C(N)=O)c2ccccc21)[C@H]1CC1(Cl)Cl` [Example 58, 1-(2-{(2S,4R)-2-[(R)-1-((R)-2,2-Dichloro-cyclopropyl)-ethylcarbamoyl]-4-fluoro-pyrrolidin-1-yl}-2-oxo-ethyl)-1H-indazole-3-carboxylic acid amide], the IC50 was 0.039 µM. Work on `CC1(C)[C@@H](CNC(=O)[C@@H]2C[C@H]3C[C@H]3N2C(=O)Cn2nc(C(N)=O)c3ccncc32)C1(Cl)Cl` [Example 101, 1-(2-{(1R,3S,5R)-3-[((S)-2,2-Dichloro-3,3-dimethyl-cyclopropylmethyl)-carbamoyl]-2-aza-bicyclo[3.1.0]hex-2-yl}-2-oxo-ethyl)-1H-pyrazolo[3,4-c]pyridine-3-carboxylic acid amide] yielded an IC50 of 0.297 µM. `CC1(C)[C@H](CNC(=O)[C@@H]2C[C@H]3C[C@H]3N2C(=O)Cn2nc(C(N)=O)c3ccccc32)C1(Cl)Cl` [Example 107, 1-(2-{(1R,3S,5R)-3-[((R)-2,2-Dichloro-3,3-dimethyl-cyclopropylmethyl)-carbamoyl]-2-aza-bicyclo[3.1.0]hex-2-yl}-2-oxo-ethyl)-1H-indazole-3-carboxylic acid amide] showed an IC50 of 0.052 µM. Compound `CC(=O)c1nn(CC(=O)N2[C@@H]3C[C@@H]3C[C@H]2C(=O)NC[C@H]2CC2(Cl)Cl)c2ccc(OC(C)c3ncccn3)cc12` (stereo partly drawn) [Example 100, (1R,3S,5R)-2-{2-[3-Acetyl-5-(1-pyrimidin-2-yl-ethoxy)-indazol-1-yl]-acetyl}-2-aza-bicyclo[3.1.0]hexane-3-carboxylic acid ((R)-2,2-dichloro-cyclopropylmethyl)-amide] has an IC50 of 0.158 µM. `CC1CCCC1CNC(=O)[C@@H]1C[C@H]2C[C@H]2N1C(=O)Cn1nc(C(N)=O)c2ccncc21` (single isomer, unassigned; dia 1) [Example 85] was tested, and the IC50 was 1.41 µM. Work on `CC(=O)c1nn(CC(=O)N2[C@@H]3C[C@@H]3C[C@H]2C(=O)NC[C@H]2CC2(Cl)Cl)c2cnccc12` [Example 92, (1R,3S,5R)-2-[2-(3-Acetyl-pyrazolo[3,4-c]pyridin-1-yl)-acetyl]-2-aza-bicyclo[3.1.0] hexane-3-carboxylic acid ((R)-2,2-dichloro-cyclopropylmethyl)-amide] yielded an IC50 of 0.024 µM. With `NC(=O)c1nn(CC(=O)N2[C@@H]3C[C@@H]3C[C@H]2C(=O)NC[C@@H]2CC2(Cl)Cl)c2ccccc12` [Example 70, 1-(2-{(1R,3S,5R)-3-[((S)-2,2-Dichloro-cyclopropylmethyl)-carbamoyl]-2-aza-bicyclo[3.1.0]hex-2-yl}-2-oxo-ethyl)-1H-indazole-3-carboxylic acid amide] the IC50 was 0.09 µM. Work on `CC1CCCC(CNC(=O)[C@@H]2C[C@H]3C[C@H]3N2C(=O)Cn2nc(C(N)=O)c3ccncc32)C1` (single isomer, unassigned; dia 3) [Example 117] yielded an IC50 of 0.307 µM. Work on `CC(=O)c1nn(CC(=O)N2[C@@H]3C[C@@H]3C[C@H]2C(=O)N[C@@H](C)C2CCCCC2)c2cnccc12` [Example 5, (1R,3S,5R)-2-[2-(3-Acetyl-pyrazolo[3,4-c]pyridin-1-yl)-acetyl]-2-aza-bicyclo[3.1.0] hexane-3-carboxylic acid ((S)-1-cyclohexyl-ethyl)-amide] yielded an IC50 of 5.25 µM. With `CCc1cc2c(C(N)=O)nn(CC(=O)N3[C@@H]4C[C@@H]4C[C@H]3C(=O)N[C@H](C)[C@H]3CC3(Cl)Cl)c2cn1` [Example 39, 1-(2-{(1R,3S,5R)-3-[(R)-1-((R)-2,2-Dichloro-cyclopropyl)-ethylcarbamoyl]-2-aza-bicyclo[3.1.0]hex-2-yl}-2-oxo-ethyl)-5-ethyl-1H-pyrazolo[3,4-c] pyridine-3-carboxylic acid amide] the IC50 was 0.027 µM. For `CC(=O)c1nn(CC(=O)N2[C@@H]3C[C@@H]3C[C@H]2C(=O)NCC2CC2(C)C)c2ncccc12` (stereo partly drawn) [Example 12, (1R,3S,5R)-2-[2-(3-Acetyl-pyrazolo[3,4-b]pyridin-1-yl)-acetyl]-2-aza-bicyclo[3.1.0] hexane-3-carboxylic acid (2,2-dimethyl-cyclopropylmethyl)-amide], the IC50 was 1.41 µM. `CC(=O)c1nn(CC(=O)N2[C@@H]3C[C@@H]3C[C@H]2C(=O)NC[C@H]2CC2(Cl)Cl)c2ccc(OCc3cscn3)cc12` [Example 105, (1R,3S,5R)-2-{2-[3-Acetyl-5-(thiazol-4-ylmethoxy)-indazol-1-yl]-acetyl}-2-aza-bicyclo[3.1.0]hexane-3-carboxylic acid ((R)-2,2-dichloro-cyclopropylmethyl)-amide] showed an IC50 of 0.014 µM. `CC1(C)[C@H](CNC(=O)[C@@H]2C[C@H]3C[C@H]3N2C(=O)Nc2cn(C(N)=O)c3ccccc23)C1(Cl)Cl` [Example 27, (1R,3S,5R)-2-Aza-bicyclo[3.1.0]hexane-2,3-dicarboxylic acid 2-[(1-carbamoyl-1H-indol-3-yl)-amide] 3-[((R)-2,2-dichloro-3,3-dimethyl-cyclopropylmethyl)-amide]] gave an IC50 of 0.019 µM. Work on `C[C@@H](NC(=O)[C@@H]1C[C@H]2C[C@H]2N1C(=O)Cn1nc(C(N)=O)c2ccccc21)C1CCCCC1` [Example 54, 1-{2-[(1R,3S,5R)-3-((R)-1-Cyclohexyl-ethylcarbamoyl)-2-aza-bicyclo[3.1.0]hex-2-yl]-2-oxo-ethyl}-1H-indazole-3-carboxylic acid amide] yielded an IC50 of 0.064 µM. For `CC1CCCC1CNC(=O)[C@@H]1C[C@H]2C[C@H]2N1C(=O)Cn1nc(C(N)=O)c2ccncc21` (single isomer, unassigned; dia 2) [Example 86], the IC50 was 0.61 µM. Compound `CC(=O)c1nn(CC(=O)N2[C@@H]3C[C@@H]3C[C@H]2C(=O)N[C@H](C)C2CCCCC2)c2cnccc12` [Example 6, (1R,3S,5R)-2-[2-(3-Acetyl-pyrazolo[3,4-c]pyridin-1-yl)-acetyl]-2-aza-bicyclo[3.1.0] hexane-3-carboxylic acid ((R)-1-cyclohexyl-ethyl)-amide] has an IC50 of 0.071 µM. `CC(=O)c1nn(CC(=O)N2[C@@H]3C[C@@H]3C[C@H]2C(=O)N[C@H](C)[C@H]2CC2(Cl)Cl)c2ccccc12` [Example 46, (1R,3S,5R)-2-[2-(3-Acetyl-indazol-1-yl)-acetyl]-2-aza-bicyclo[3.1.0]hexane-3-carboxylic acid [(R)-1-((R)-2,2-dichloro-cyclopropyl)-ethyl]-amide] gave an IC50 of 0.012 µM.

Same assay, conditions: IC50, Factor D inhibition data using Method 1; recombinant human factor D 10 nM, substrate Z-Lys-thiobenzyl, fluorescence
For `CC1C(CNC(=O)[C@@H]2C[C@H]3C[C@H]3N2C(=O)Cn2nc(C(N)=O)c3ccccc32)C1(Cl)Cl` (single isomer, unassigned; dia 1) [Example 73, 1-(2-{(1R,3S,5R)-3-[((1R,3R) or (1S,3S)-2,2-Dichloro-3-methyl-cyclopropylmethyl)-carbamoyl]-2-aza-bicyclo[3.1.0]hex-2-yl}-2-oxo-ethyl)-1H-indazole-3-carboxylic acid amide-Dia 1], the IC50 was 0.1 µM. `CC1C(CNC(=O)[C@@H]2C[C@H]3C[C@H]3N2C(=O)Cn2nc(C(N)=O)c3ccncc32)C1(Cl)Cl` (single isomer, unassigned; dia 2) [Example 82, 1-(2-{(1R,3S,5R)-3-[((1R,3R) or (1S,3S)-2,2-Dichloro-3-methyl-cyclopropylmethyl)-carbamoyl]-2-aza-bicyclo[3.1.0]hex-2-yl}-2-oxo-ethyl)-1H-pyrazolo[3,4-c]pyridine-3-carboxylic acid amide-Dia 2] gave an IC50 of 0.085 µM.
